Test results taken from patent US12612409B2, “Pyrrolopyrimidines as CFTR potentiators” (Cystic Fibrosis Foundation, priority 2016, dated 2026).

What was measured:
[1] = target: T1, CFTR in F508del/F508del primary CF hBE cells (Homo sapiens, UniProt P13569, DEL508-508); test: Ussing chamber electrophysiology assay of CFTR potentiation in F508del/F508del CF bronchial epithelial cells (27° C.); type: cell-based
T1 construct: Primary cystic fibrosis human bronchial epithelial (CF hBE) cells were expanded and cultured; endogenous in cells; host or cells: primary CF human bronchial epithelial cells, genotype F508del/F508del
Source text: • SHELXTL, Version 5.1, Bruker AXS, 1997. • PLATON, A. L. Spek, J. Appl. Cryst. 2003, 36, 7-13. • MERCURY, C. F. Macrae, P. R. Edington, P. McCabe, E. Pidcock, G. P. Shields, R. Taylor, M. Towler and J. van de Streek, J. Appl. Cryst. 39, 453-457, 2006. • OLEX2, Dolomanov, O. V.; Bourhis, L. J.; Gildea, R. J.; Howard, J. A. K.; Puschmann, H., (2009). J. Appl. Cryst., 42, 339-341. • R. W. W. Hooft et al. J. Appl. Cryst. (2008). 41. 96-103. • H. D. Flack, Acta Cryst. 1983, A39, 867-881. Using Chamber Electrophysiology Assay of CFTR Potentiation in CF Bronchial Epithelial Cells
Primary cystic fibrosis human bronchial epithelial (CF hBE) cells were expanded and cultured according to published methods (Neuberger et al., Ch. 4 of Cystic Fibrosis, Methods in Molecular Biology vol. 741, pp. 39-54 (2011)). Well-differentiated cells (>30 days at air/liquid interface) on Snapwell filters (Corning Costar, cat. no. 3801) were mounted in Ussing chambers (Physiologic Instruments, Inc., San Diego, CA). […] HEPES buffered physiological saline (composition (in mM): 137 NaCl, 4 KCl, 1 MgCl2, 1.8 CaCl2), 10 HEPES Na) was used in both apical and basolateral chambers. Chambers were bubbled with air to promote mixing and the voltage was clamped to zero. Amiloride (30 uM), forskolin (10 uM), test compound (4 increasing concentrations), and CFTRinh-172 (20 uM) were added sequentially with 20-25 minutes between additions. Short-circuit currents were acquired and analyzed using LabScribe2. Test compound responses were scaled relative to responses for DMSO (0%) and the maximal response of a positive control potentiator (100%).

[2] = target: T2, recombinant F508del V470 CFTR in Fischer rat thyroid (FRT) cells (Homo sapiens, UniProt P13569, DEL508-508); test: FRT ion flux assay of F508del CFTR potentiation; type: cell-based; conditions: FRT cells expressing F508del V470 CFTR, forskolin 20 uM, 27° C. pre-incubation
T2 construct: expressed in transfected cells
Procedure: FRT Ion Flux Assay of F508del CFTR Potentiation
Fischer rat thyroid (FRT) cell lines stably expressing recombinant F508del V470 CFTR and halide-sensitive yellow fluorescent protein (Pedemonte et al., J. Clin. Invest. 115(9) 2564-71 (2005)) were seeded at 25,000 cells/well in 50 uL/well of culture medium into black-walled, clear bottom tissue-culture-treated 384-well plates (Corning, cat. no. 3712). After one day, the cells were pre-incubated at 27° C./5% CO2 for 16-24 hours. The cells were then washed with dPBS and treated with forskolin (20 uM) and test compound for 30 mi by addition of 20 uL of compound dilution buffer (dPBS containing forskolin and test compound). Plates were loaded into FLIPR384 fluorescence imaging plate reader (Molecular Devices). After an initial fluorescence reading, iodide buffer (25 uL) (composition (in mM): 137 NaI, 1.5 K2PO4, 8.1 NaH2PO4, 2.7 KCl, 0.5 MgCl2, 1 CaCl2) was added and a second fluorescence reading was made after approximately 21 seconds. Data treatment involved division of the second fluorescence reading by the initial fluorescence reading, then scaling of the resulting normalized endpoint fluorescence with respect to the responses for DMSO (0%) and a positive control potentiator (100%).

T2 sequence (P13569 with tags, fused parts or gaps DEL508-508): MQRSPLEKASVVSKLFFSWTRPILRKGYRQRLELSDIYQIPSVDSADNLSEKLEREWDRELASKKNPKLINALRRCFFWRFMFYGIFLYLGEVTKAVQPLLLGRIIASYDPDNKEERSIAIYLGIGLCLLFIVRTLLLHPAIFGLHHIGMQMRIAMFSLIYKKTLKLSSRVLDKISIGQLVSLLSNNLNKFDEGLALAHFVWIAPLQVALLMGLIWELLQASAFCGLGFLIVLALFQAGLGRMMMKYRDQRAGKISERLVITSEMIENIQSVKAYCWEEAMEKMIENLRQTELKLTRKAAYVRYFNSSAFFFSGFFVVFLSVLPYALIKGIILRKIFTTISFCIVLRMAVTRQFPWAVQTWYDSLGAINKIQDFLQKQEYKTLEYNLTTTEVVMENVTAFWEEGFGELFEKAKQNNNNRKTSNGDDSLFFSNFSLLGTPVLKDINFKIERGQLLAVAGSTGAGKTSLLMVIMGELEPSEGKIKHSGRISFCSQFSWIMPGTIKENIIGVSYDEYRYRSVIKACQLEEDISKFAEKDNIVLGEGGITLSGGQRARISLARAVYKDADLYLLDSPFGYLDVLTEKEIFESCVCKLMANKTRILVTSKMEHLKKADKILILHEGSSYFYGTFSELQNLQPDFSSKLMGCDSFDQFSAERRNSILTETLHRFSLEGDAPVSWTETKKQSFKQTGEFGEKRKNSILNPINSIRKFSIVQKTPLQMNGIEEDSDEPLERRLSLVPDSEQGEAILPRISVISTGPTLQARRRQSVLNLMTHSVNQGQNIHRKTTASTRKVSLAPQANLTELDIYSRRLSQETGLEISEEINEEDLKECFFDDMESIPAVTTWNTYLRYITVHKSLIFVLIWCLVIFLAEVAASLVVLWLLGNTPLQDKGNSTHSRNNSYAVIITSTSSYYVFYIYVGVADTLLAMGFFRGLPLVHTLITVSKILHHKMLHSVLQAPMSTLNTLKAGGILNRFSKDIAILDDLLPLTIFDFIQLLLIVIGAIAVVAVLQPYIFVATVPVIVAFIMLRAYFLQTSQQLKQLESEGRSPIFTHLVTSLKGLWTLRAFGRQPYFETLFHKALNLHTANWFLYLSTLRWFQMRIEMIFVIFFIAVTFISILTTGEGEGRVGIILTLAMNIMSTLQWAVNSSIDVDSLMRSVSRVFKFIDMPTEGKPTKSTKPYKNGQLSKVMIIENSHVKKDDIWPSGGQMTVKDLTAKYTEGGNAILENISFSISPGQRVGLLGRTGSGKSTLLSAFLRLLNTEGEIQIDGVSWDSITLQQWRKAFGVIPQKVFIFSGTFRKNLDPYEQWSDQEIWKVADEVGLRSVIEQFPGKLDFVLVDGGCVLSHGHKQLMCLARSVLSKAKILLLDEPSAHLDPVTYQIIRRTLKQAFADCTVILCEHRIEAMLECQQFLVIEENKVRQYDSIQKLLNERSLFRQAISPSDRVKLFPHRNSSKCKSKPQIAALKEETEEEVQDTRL
T1 sequence (P13569 with tags, fused parts or gaps DEL508-508): as above

SMILES | EC50 [1] | EC50 [2]
CC(c1cc(-c2ccccc2F)no1)n1cc(-c2ccc(-c3ncns3)cc2)c2c(N)ncnc21 (stereo not shown) [Example 107, 7-{1-[3-(2-Fluorophenyl)-1,2-oxazol-5-yl]ethyl}-5-[4-(1,2,4-thiadiazol-5-yl)phenyl]-7H-pyrrolo[2,3-d]pyrimidin-4-amine] | 122 nM | 172 nM
CC(c1cn(-c2ccccc2F)nn1)n1cc(C2CCC2)c2c(N)ncnc21 (single isomer, unassigned; enantiomer 1) [Example 294, 5-Cyclobutyl-7-{1-[1-(2-fluorophenyl)-1H-1,2,3-triazol-4-yl]ethyl}-7H-pyrrolo[2,3-d]pyrimidin-4-amine, enantiomer 1] | 189 nM | 167 nM
CC(C)c1cc(Cn2cc(-c3ccc(Cl)cc3)c3c(N)ncnc32)on1 [Example 283, 5-(4-Chlorophenyl)-7-{[3-(propan-2-yl)-1,2-oxazol-5-yl]methyl}-7H-pyrrolo[2,3-d]pyrimidin-4-amine] | 111 nM | 659 nM
COc1ncccc1-c1cn(C2(c3cn(-c4ccccc4F)nn3)CC2)c2ncnc(N)c12 [Example 298, 7-{1-[1-(2-Fluorophenyl)-1H-1,2,3-triazol-4-yl]cyclopropyl}-5-(2-methoxypyridin-3-yl)-7H-pyrrolo[2,3-d]pyrimidin-4-amine] | 245 nM | 180 nM
COc1ncncc1-c1cn(Cc2cn(-c3ccccc3F)nn2)c2nc(C)nc(N)c12 [Example 203, 7-{[1-(2-fluorophenyl)-1H-1,2,3-triazol-4-yl]methyl}-5-(4-methoxypyrimidin-5-yl)-2-methyl-7H-pyrrolo[2,3-d]pyrimidin-4-amine] | 2530 nM | 1610 nM
COc1cccc(-c2cc(C(C)n3cc(-c4ccc(Cl)cc4)c4c(N)ncnc43)on2)c1 (stereo not shown) [Example 261, 5-(4-Chlorophenyl)-7-{1-[3-(3-methoxyphenyl)-1,2-oxazol-5-yl]ethyl}-7H-pyrrolo[2,3-d]pyrimidin-4-amine] | 232 nM | 169 nM
CCC(c1cn(-c2ccccc2F)nn1)n1cc(-c2ccc(Cl)cc2)c2c(N)ncnc21 (single isomer, unassigned; enantiomer 1) [Example 131, 5-(4-Chlorophenyl)-7-{1-[1-(2-fluorophenyl)-1H-1,2,3-triazol-4-yl]propyl}-7H-pyrrolo[2,3-d]pyrimidin-4-amine, enantiomer 1] | 282 nM | 623 nM
COc1cc(C#N)cc(-c2cn(Cc3cn(-c4ccccc4F)nn3)c3ncnc(N)c23)c1 [Example 72, 3-(4-Amino-7-{[1-(2-fluorophenyl)-1H-1,2,3-triazol-4-yl]methyl}-7H-pyrrolo[2,3-d]pyrimidin-5-yl)-5-methoxybenzonitrile] | 57 nM | 186 nM

These reach a lower EC50 [1]. Values come first.

EC50 [1] | EC50 [2] | SMILES
50.3 nM | 124 nM | COc1nccnc1-c1cn(Cc2cn(-c3ccccc3F)nn2)c2ncnc(N)c12 [Example 296, 7-{[1-(2-Fluorophenyl)-1H-1,2,3-triazol-4-yl]methyl}-5-(3-methoxypyrazin-2-yl)-7H-pyrrolo[2,3-d]pyrimidin-4-amine]
35.5 nM | 18.5 nM | CCC(c1cn(-c2ccc(F)cc2F)nn1)n1cc(-c2cncnc2OC)c2c(N)ncnc21 (single isomer, unassigned; enantiomer 1) [Example 159, (+) 7-{1-[1-(2,4-Difluorophenyl)-1H-1,2,3-triazol-4-yl]propyl}-5-(4-methoxypyrimidin-5-yl)-7H-pyrrolo[2,3-d]pyrimidin-4-amine, enantiomer 1]
33.5 nM | 19.8 nM | CC(c1cn(-c2ccc(F)cc2F)nn1)n1c(C#N)c(-c2cnc(C(F)(F)F)nc2)c2c(N)ncnc21 (single isomer, unassigned) [Example 11, 4-Amino-7-{1-[1-(2,4-difluorophenyl)-1H-1,2,3-triazol-4-yl]ethyl}-5-[2-(trifluoromethyl)pyrimidin-5-yl]-7H-pyrrolo[2,3-d] pyrimidine-6-carbonitrile]
31.5 nM | 19.6 nM | COc1ncncc1-c1cn(C(c2cn(-c3ccccc3F)nn2)C2CC2)c2ncnc(N)c12 (single isomer, unassigned; enantiomer 1) [Example 174, (+) 7-{Cyclopropyl[1-(2-fluorophenyl)-1H-1,2,3-triazol-4-yl]methyl}-5-(4-methoxypyrimidin-5-yl)-7H-pyrrolo[2,3-d]pyrimidin-4-amine, enantiomer 1]
26 nM | 36 nM | CC(c1cn(-c2ccccc2F)nn1)n1cc(-c2ccc(C#N)c(F)c2)c2c(N)ncnc21 (single isomer, unassigned; enantiomer 2) [Example 116, 4-(4-Amino-7-{1-[1-(2-fluorophenyl)-1H-1,2,3-triazol-4-yl]ethyl}-7H-pyrrolo[2,3-d]pyrimidin-5-yl)-2-fluorobenzonitrile, enantiomer 2]
22.7 nM | 478 nM | Nc1ncnc2c1c(-c1ccc(Cl)cc1)cn2Cc1cc(C2CCCCC2)no1 [Example 269, 5-(4-Chlorophenyl)-7-[(3-cyclohexyl-1,2-oxazol-5-yl)methyl]-7H-pyrrolo[2,3-d]pyrimidin-4-amine]
14.4 nM | 34.7 nM | CCC(c1cn(-c2cc(F)ccc2F)nn1)n1cc(-c2cnc(C(F)(F)F)nc2)c2c(N)ncnc21 (single isomer, unassigned) [Example 185, 7-{1-[1-(2,5-difluorophenyl)-1H-1,2,3-triazol-4-yl]propyl}-5-[2-(trifluoromethyl)pyrimidin-5-yl]-7H-pyrrolo[2,3-d]pyrimidin-4-amine]
10.2 nM | 6.72 nM | CCC(c1nnn(-c2ccc(F)cc2F)c1C)n1cc(-c2cnc(C(F)(F)F)nc2)c2c(N)ncnc21 (single isomer, unassigned) [Example 189]
8 nM | 9.89 nM | CCC(c1cnn(-c2ccccc2F)c1)n1cc(-c2cnc(C(F)(F)F)nc2)c2c(N)ncnc21 (single isomer, unassigned; enantiomer 1) [Example 175, 7-{(1-[1-(2-Fluorophenyl)-1H-pyrazol-4-yl]propyl}-5-[2-(trifluoromethyl)pyrimidin-5-yl]-7H-pyrrolo[2,3-d]pyrimidin-4-amine, enantiomer 1]
6.84 nM | 4.05 nM | CCC(c1cn(-c2ccccc2F)nn1)n1c(C#N)c(-c2cnc(C(F)(F)F)nc2)c2c(N)ncnc21 (single isomer, unassigned) [Example 22, 4-Amino-7-{1-[1-(2-fluorophenyl)-1H-1,2,3-triazol-4-yl]propyl}-5-[2-(trifluoromethyl)pyrimidin-5-yl]-7H-pyrrolo[2,3-d]pyrimidine-6-carbonitrile]
2.24 nM | 2.33 nM | N#Cc1c(-c2cnc(C(F)(F)F)nc2)c2c(N)ncnc2n1Cc1cnn(-c2ccc(F)cc2F)c1 [Example 29, 4-Amino-7-{[1-(2,4-difluorophenyl)-1H-pyrazol-4-yl]methyl}-5-[2-(trifluoromethyl)pyrimidin-5-yl]-7H-pyrrolo[2,3-d]pyrimidine-6-carbonitrile]
2.03 nM | 0.59 nM | N#Cc1c(-c2cnc(C(F)F)nc2)c2c(N)ncnc2n1Cc1cnn(-c2ccccc2F)c1 [Example 30, 4-Amino-5-[2-(difluoromethyl)pyrimidin-5-yl]-7-{[1-(2-fluorophenyl)-1H-pyrazol-4-yl]methyl}-7H-pyrrolo[2,3-d]pyrimidine-6-carbonitrile]
